How the values were obtained:
[1] = molecular target: wild-type human cardiac sodium channel, hNaV 1.5 (Late INa) (Homo sapiens, UniProt Q14524); test: Late INa screening assay (whole cell patch clamp, QPatch, Tefluthrin-induced late current); type: cell-based; conditions: HEK293, % inhibition (percent block of late INa) at 1 uM; HEK293 hNaV1.5; 10 μM Tefluthrin; read-out: Nav1.5 Late INa 1 uM
Summary of the method: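 HEK293 cells stably expressing hNaV1.5 without beta subunits, whole-cell patch clamp at 23-25° C; late current induced by 10 μM Tefluthrin, measured 240-265 ms into 250 ms steps to −20 mV from −120 mV at 0.1 Hz. Compounds typically 0.3 or 1 μM, three additions over 5 min; percent block normalized to 0Na baseline with rundown correction.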

[2] = molecular target: T1, hNaV1.2 (SCN2A) (Homo sapiens, UniProt Q99250); test: Use-dependent inhibition of the CNS NaV1.2 sodium channel; type: cell-based; conditions: HEK-293, % inhibition, 25 Hz; for inhibition at 1 µM: use-dependent block at 1 uM, read-out: Nav1.2 UDB 25 Hz 1 uM; for inhibition at 10 µM: use-dependent block at 10 uM, read-out: Nav1.2 UDB 25 Hz 10 uM
T1 construct: expressed in transfected cells
T1 sequence (Q99250 whole entry): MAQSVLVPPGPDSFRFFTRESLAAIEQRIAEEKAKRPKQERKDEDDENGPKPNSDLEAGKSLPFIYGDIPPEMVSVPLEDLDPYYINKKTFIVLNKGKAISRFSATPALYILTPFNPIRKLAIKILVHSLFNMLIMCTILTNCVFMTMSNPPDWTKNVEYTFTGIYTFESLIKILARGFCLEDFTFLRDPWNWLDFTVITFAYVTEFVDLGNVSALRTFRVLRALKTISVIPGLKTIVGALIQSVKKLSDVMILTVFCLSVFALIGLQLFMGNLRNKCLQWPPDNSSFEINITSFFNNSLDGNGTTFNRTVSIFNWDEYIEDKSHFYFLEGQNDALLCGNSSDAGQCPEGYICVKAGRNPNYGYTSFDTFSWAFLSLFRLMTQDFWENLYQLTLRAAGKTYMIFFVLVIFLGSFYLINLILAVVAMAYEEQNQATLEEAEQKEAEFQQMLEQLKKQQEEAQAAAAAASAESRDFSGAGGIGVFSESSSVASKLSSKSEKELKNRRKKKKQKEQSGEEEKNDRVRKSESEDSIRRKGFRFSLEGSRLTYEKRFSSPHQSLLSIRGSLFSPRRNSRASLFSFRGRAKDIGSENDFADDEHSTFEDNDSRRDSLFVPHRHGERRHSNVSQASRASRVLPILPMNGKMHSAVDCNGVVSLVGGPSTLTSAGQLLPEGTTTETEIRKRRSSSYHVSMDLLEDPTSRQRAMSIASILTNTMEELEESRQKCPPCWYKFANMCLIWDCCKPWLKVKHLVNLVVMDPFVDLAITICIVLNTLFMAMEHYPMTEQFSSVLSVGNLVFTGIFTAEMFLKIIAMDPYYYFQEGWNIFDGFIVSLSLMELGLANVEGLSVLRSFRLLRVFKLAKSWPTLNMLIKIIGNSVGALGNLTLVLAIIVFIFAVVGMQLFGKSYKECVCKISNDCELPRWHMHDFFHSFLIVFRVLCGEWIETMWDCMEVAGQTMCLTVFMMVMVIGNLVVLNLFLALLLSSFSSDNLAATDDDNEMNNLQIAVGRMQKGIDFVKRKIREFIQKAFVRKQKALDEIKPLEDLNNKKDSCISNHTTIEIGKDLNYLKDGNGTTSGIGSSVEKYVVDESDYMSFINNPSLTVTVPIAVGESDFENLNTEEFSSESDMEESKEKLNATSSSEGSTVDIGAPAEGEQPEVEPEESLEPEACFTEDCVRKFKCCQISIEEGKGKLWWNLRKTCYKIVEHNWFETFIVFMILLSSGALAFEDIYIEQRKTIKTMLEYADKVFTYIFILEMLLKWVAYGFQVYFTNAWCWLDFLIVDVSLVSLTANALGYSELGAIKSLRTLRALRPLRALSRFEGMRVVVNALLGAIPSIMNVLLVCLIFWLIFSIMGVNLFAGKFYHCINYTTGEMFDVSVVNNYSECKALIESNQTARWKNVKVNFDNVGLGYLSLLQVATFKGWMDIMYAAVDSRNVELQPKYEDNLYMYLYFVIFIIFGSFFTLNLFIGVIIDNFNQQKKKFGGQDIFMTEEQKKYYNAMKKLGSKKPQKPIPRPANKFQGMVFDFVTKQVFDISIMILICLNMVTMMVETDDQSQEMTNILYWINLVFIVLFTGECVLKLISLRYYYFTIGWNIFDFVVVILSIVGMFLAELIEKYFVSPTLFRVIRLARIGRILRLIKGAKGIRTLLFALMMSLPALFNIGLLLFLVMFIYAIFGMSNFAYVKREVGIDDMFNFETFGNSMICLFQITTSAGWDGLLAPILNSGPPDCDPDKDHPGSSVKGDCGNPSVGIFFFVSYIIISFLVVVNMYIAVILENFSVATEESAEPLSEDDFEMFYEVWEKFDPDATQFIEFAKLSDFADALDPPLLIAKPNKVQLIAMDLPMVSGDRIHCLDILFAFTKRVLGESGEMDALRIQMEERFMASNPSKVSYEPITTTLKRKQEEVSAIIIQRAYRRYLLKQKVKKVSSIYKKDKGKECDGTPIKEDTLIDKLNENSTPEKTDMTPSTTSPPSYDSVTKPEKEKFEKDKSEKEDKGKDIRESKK
T1 sequence (Q07699 19-218 partner): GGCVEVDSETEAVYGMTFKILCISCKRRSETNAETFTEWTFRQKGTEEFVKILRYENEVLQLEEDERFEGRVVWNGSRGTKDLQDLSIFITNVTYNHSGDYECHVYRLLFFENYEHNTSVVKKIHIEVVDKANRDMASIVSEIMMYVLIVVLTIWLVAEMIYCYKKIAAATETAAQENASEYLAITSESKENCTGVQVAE
T1 sequence (O60939 30-215 partner): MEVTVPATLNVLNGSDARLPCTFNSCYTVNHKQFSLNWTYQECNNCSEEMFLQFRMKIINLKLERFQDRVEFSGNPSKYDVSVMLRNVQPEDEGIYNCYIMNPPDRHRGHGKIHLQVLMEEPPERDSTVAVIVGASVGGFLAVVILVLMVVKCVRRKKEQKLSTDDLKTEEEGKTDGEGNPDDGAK
Summary of the method: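 Use-dependent block of human NaV1.2 was recorded by automated whole-cell patch clamp (QPatch) in HEK-293 cells stably expressing hNaV1.2 with beta1 and beta2 subunits. From a −120 mV holding potential, a 25 Hz train of twenty 20 ms pulses to 0 mV was applied. Peak current at pulse 20, normalized to pulse 1, gave percent inhibition versus compound-free conditions at 23-25° C.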

Chain of wild-type human cardiac sodium channel, hNaV 1.5 (Late INa) (Q14524 whole entry): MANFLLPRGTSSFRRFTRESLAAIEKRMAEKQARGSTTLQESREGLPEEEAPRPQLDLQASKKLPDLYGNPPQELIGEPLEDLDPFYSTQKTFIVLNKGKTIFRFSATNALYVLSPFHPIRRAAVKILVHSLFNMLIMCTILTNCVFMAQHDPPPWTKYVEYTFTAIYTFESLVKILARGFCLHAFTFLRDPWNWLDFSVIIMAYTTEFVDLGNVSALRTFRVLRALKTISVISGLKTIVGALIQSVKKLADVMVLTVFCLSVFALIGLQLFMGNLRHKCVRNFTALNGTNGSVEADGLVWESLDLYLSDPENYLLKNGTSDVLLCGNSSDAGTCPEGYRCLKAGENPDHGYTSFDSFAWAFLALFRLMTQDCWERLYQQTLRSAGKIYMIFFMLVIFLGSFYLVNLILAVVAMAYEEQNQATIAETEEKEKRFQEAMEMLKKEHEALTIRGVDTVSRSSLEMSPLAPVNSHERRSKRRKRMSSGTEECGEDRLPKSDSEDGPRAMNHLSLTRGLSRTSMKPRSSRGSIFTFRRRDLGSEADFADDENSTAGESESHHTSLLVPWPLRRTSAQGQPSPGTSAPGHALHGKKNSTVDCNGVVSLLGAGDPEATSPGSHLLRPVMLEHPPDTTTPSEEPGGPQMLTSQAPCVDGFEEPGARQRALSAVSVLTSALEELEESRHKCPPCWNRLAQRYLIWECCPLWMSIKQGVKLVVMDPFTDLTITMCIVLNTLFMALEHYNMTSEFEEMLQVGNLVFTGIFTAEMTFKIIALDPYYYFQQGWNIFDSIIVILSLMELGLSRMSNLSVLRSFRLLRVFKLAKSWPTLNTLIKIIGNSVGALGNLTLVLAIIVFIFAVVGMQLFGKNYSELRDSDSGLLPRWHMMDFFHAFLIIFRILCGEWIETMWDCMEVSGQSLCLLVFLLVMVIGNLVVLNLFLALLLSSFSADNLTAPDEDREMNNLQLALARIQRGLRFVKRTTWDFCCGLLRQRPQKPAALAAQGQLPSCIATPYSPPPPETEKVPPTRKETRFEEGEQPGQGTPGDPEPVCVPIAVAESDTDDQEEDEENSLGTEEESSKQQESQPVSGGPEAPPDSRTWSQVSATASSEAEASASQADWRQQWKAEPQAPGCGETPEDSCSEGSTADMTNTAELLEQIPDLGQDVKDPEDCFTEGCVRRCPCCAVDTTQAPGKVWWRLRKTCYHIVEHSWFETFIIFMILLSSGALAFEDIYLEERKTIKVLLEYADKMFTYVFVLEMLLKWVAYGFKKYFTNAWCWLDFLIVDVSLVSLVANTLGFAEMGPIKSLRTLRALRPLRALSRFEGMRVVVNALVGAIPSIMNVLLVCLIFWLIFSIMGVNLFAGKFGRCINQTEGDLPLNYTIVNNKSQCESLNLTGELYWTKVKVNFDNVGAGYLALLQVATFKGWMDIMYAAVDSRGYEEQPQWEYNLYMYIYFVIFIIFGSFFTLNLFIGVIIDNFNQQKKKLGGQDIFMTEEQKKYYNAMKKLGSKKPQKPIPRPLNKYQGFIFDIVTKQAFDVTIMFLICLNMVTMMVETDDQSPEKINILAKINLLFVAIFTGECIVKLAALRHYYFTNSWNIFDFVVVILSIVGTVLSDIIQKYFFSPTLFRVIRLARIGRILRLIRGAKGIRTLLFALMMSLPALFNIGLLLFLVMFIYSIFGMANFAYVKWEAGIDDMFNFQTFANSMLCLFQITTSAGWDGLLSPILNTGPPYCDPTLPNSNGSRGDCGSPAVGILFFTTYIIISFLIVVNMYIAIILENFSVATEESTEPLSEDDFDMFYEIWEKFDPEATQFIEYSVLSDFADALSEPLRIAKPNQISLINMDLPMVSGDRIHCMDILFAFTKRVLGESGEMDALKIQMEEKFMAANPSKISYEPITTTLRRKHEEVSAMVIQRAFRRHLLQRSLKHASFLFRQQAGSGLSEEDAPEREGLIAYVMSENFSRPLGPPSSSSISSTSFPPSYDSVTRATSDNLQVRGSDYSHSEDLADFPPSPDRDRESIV

`Cc1csc(CN2Cc3cc(-c4ccc(OC(F)(F)F)c(C)c4)ccc3OC2=O)n1` [Example 54, 6-(3-methyl-4-(trifluoromethoxy)phenyl)-3-((4-methylthiazol-2-yl)methyl)-3,4-dihydro-2H-benzo[e][1,3]oxazin-2-one] showed an inhibition at 1 µM [1] of 31%, an inhibition at 1 µM [2] of 6.1% and an inhibition at 10 µM [2] of 43.5%.

With `Cc1csc(CN2Cc3cc(-c4ccc(OC(F)(F)F)cc4F)ccc3OC2=O)n1` [Example 55, 6-(2-fluoro-4-(trifluoromethoxy)phenyl)-3-((4-methylthiazol-2-yl)methyl)-3,4-dihydro-2H-benzo[e][1,3]oxazin-2-one] the inhibition at 1 µM [1] was 35.3%, the inhibition at 1 µM [2] was 22.6% and the inhibition at 10 µM [2] was 61.8%.

In the case of `Cc1csc(CN2Cc3cc(-c4ccc(Cl)c(Cl)c4)ccc3OC2=O)n1` [Example 56, 6-(3,4-dichlorophenyl)-3-((4-methylthiazol-2-yl)methyl)-3,4-dihydro-2H-benzo[e][1,3]oxazin-2-one], the inhibition at 1 µM [1] is reported as 39%, the inhibition at 1 µM [2] is reported as less than 5% and the inhibition at 10 µM [2] is reported as 15.2%.

`Cc1csc(CN2Cc3cc(-c4ccc(OC(F)(F)F)cc4Cl)ccc3OC2=O)n1` [Example 57, 6-(2-chloro-4-(trifluoromethoxy)phenyl)-3-((4-methylthiazol-2-yl)methyl)-3,4-dihydro-2H-benzo[e][1,3]oxazin-2-one] showed an inhibition at 1 µM [1] of 34.1%, an inhibition at 1 µM [2] of 12.8% and an inhibition at 10 µM [2] of 61.5%.

For `COc1cc(OC(F)(F)F)ccc1-c1ccc2c(c1)CN(Cc1nc(C)cs1)C(=O)O2` [Example 58, 6-(2-methoxy-4-(trifluoromethoxy)phenyl)-3-((4-methylthiazol-2-yl)methyl)-3,4-dihydro-2H-benzo[e][1,3]oxazin-2-one], the inhibition at 1 µM [1] was 44.1%, the inhibition at 1 µM [2] was 10.6% and the inhibition at 10 µM [2] was 58.7%.

Work on `Cc1csc(CN2Cc3cc(-c4ccc(Cl)c(F)c4)ccc3OC2=O)n1` [Example 59, 6-(4-chloro-3-fluorophenyl)-3-((4-methylthiazol-2-yl)methyl)-3,4-dihydro-2H-benzo[e][1,3]oxazin-2-one] yielded an inhibition at 1 µM [1] of 50.3%, an inhibition at 1 µM [2] of less than 5% and an inhibition at 10 µM [2] of 41.2%.

From patent US9416128B2, “Fused heterocyclic compounds as ion channel modulators” (Gilead Sciences, Inc., priority 2013, dated 2016)
